# Results: patent US7312233B2, “Amide derivatives as ion-channel ligands and pharmaceutical compositions and methods of using the same” (Renovis, Inc., priority 2005, dated 2007)
# Target: T1, HsVR1 (Homo sapiens, UniProt Q8NER1)
# T1 construct: expressed in transfected cells; host or cells: Xenopus oocytes injected with HsVR1 RNA
# Assay: Two-electrode voltage clamp recording (OpusXpress) of capsaicin induced VR1 current in Xenopus oocytes injected with HsVR1 RNA
# Type: cell-based
# Settings: 250 nM capsaicin induced VR1 current, n=5 oocytes, FIG. 1
# Protocol: Oocytes are prepared by surgically removing Xenopus ovaries obtained from NASCO. The oocytes are isolated by enzymatic dissociation using collagenase (Worthington, 2 mg/ml). Oocytes are then individually injected with HsVR1 RNA. Each oocyte receives 64 nl of RNA solution in water at a concentration of 0.5 μg/μl. Injected oocytes are stored in standard oocyte incubation solution, ND96, containing (in mM) 96 NaCl, 2 KCl, 1 MgCl2, 1.8 CaCl2 and 50 μg/ml Gentamicin at 16° C. […] Eight oocytes are placed in the recording chambers. Each oocyte is impaled by 2 glass electrodes having resistances of 0.5 to 1 MOhm when filled with a 3 M KCl solution. Electrode advancement and oocyte impalement are under software control (OpusXpress® 1.1 Molecular Devices Corporation). The solutions are prepared in 96 well plates and robotically pipetted into the oocyte recording chambers by an 8 channel pipettor. Test solution delivery to the oocytes during the experiment is also under software control. […] The standard test concentrations for the compounds tested here usually range from 0.3 to 2000 nM. Quantitative measurement of VR1 current block is done by calculating the area under the curve described by the inward current. […] These points are then plotted on a logarithmic scale and fitted by a Hill function. The IC50 is calculated from the resulting Hill fit.
# T1 sequence (Q8NER1 whole entry): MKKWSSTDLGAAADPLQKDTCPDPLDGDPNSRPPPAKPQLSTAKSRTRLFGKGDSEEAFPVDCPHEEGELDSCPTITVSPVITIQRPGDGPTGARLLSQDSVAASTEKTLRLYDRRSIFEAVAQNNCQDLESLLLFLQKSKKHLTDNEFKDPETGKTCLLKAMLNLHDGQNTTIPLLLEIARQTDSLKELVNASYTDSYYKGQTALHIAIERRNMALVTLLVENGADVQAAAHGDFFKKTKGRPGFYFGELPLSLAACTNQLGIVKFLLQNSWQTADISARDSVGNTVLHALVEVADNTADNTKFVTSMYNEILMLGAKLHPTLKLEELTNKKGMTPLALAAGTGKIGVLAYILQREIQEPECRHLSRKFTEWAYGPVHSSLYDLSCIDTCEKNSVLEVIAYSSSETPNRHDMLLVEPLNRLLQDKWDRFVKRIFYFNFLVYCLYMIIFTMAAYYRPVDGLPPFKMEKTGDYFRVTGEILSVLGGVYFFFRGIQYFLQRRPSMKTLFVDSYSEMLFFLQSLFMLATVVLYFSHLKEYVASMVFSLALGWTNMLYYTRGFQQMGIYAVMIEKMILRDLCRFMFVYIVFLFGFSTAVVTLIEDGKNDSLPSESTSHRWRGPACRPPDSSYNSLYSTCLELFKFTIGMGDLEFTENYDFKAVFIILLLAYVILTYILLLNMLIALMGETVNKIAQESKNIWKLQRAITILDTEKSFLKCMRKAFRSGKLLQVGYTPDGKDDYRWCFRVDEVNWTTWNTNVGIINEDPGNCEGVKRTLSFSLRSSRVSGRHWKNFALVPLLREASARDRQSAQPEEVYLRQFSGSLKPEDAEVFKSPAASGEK
row,IC50 [nM],SMILES
1,178 ± 26,"Cc1nc2cc(NC(=O)c3ccc(C4CC4)cc3C)ccc2s1 [Compound 7, 4-cyclopropyl-2-methyl-N-(2-methylbenzo[d]thiazol-5-yl)benzamide]"

# Same assay, conditions: +/- standard error measurement, FIG. 1 legend
row,IC50 [nM],SMILES
1,177,"Cc1nc2cc(NC(=O)c3ccc(C4CC4)cc3C)ccc2s1 [Compound 7, 4-cyclopropyl-2-methyl-N-(2-methylbenzo[d]thiazol-5-yl)benzamide]"

# Target: T2, hVR1 (Homo sapiens, UniProt Q8NER1)
# T2 construct: expressed in transfected cells; host or cells: T-REx HEK 293 (Invitrogen), pcDNA5/TO vector
# T2 sequence (Q8NER1 whole entry): as above
# Assay: Calcium uptake assay (Fura2, Flex Station) in HEK 293 cells expressing hVR1
# Type: cell-based
# Settings: 0.3 μM compound, inhibition of agonist-induced calcium influx, 0.3 µM
row,SMILES,% Inhib. @ 0.3 μM
1,"Cc1cc(C2CC2C(F)(F)F)ccc1C(=O)Nc1ccc2c(c1)OCCO2 (single isomer, unassigned) [Compound 8, N-(2,3-dihydrobenzo[b][1,4]dioxin-6-yl)-2-methyl-4-(2-(trifluoromethyl)cyclopropyl)benzamide]",+ (compound exhibited 0-25% inhibition of calcium ion influx)
2,"Cc1cc(C2CC2C(F)(F)F)ccc1C(=O)Nc1cnc2ccccc2c1 (single isomer, unassigned) [Compound 20, 2-methyl-N-(quinolin-3-yl)-4-(2-(trifluoromethyl)cyclopropyl)benzamide]",++ (compound exhibited 25-50% inhibition of calcium ion)
3,"Cc1cc(C2CC2C(F)(F)F)ccc1C(=O)Nc1cnc2ccccc2c1 (single isomer, unassigned) [Compound 17, 2-methyl-N-(quinolin-3-yl)-4-(2-(trifluoromethyl)cyclopropyl)benzamide]",+++ (compound exhibited 50-75% inhibition of calcium ion influx)
4,"Cc1cc(C2CC2C(F)(F)F)ccc1C(=O)Nc1cnc2ccccc2c1 (single isomer, unassigned) [Compound 19, 2-methyl-N-(quinolin-3-yl)-4-(2-(trifluoromethyl)cyclopropyl)benzamide]",+ (compound exhibited 0-25% inhibition of calcium ion influx)
5,"Cc1cc(C2CC2C(F)(F)F)ccc1C(=O)Nc1cnc2ccccc2c1 (single isomer, unassigned) [Compound 18, 2-methyl-N-(quinolin-3-yl)-4-(2-(trifluoromethyl)cyclopropyl)benzamide]",+++ (compound exhibited 50-75% inhibition of calcium ion influx)
6,"Cc1cc(C2CC2C(F)(F)F)ccc1C(=O)Nc1ccc2c(c1)OCCO2 (single isomer, unassigned) [Compound 13, N-(2,3-dihydrobenzo[b][1,4]dioxin-6-yl)-2-methyl-4-(2-(trifluoromethyl)cyclopropyl)benzamide]",+++ (compound exhibited 50-75% inhibition of calcium ion influx)

# Same assay, conditions: HEK293, 0.3 μM compound, inhibition of agonist-induced calcium influx, read-out: % Inhib. @ 0.3 μM
row,SMILES,inhibition at 0.3 µM [%]
1,"Cc1cc(C2CC2C(F)(F)F)ccc1C(=O)Nc1ccc2sc(CO)nc2c1 (single isomer, unassigned) [Compound 15]",> 75
2,"Cc1cc(C2CC2)ccc1C(=O)Nc1cnc2ccccc2c1 [Compound 5, 4-cyclopropyl-2-methyl-N-(quinolin-3-yl)benzamide]",> 75
3,"COc1cccc(NC(=O)c2ccc(C3CC3(Cl)Cl)cc2)c1 (centres unmarked) [Compound 4, 4-(2,2-dichlorocyclopropyl)-N-(3-methoxyphenyl)benzamide]",> 75
4,"Cc1cc(C2CC2C(F)(F)F)ccc1C(=O)Nc1cccc2c1CCCC2 (single isomer, unassigned) [Compound 9, 2-methyl-N-(5,6,7,8-tetrahydronaphthalen-1-yl)-4-(2-(trifluoromethyl)cyclopropyl)benzamide]",0 to 25

# Continued, values first:
row,inhibition at 0.3 µM [%],SMILES
1,50 to 75,"O=C(Nc1cnc2ccccc2c1)c1ccc(C2CC2(Cl)Cl)cc1 (centres unmarked) [Compound 3, 4-(2,2-dichlorocyclopropyl)-N-(quinolin-3-yl)benzamide]"
2,25 to 50,"COc1cccc(NC(=O)c2ccc(C3CC3C(F)(F)F)cc2C)c1 (single isomer, unassigned) [Compound 16, N-(3-methoxyphenyl)-2-methyl-4-(2-(trifluoromethyl)cyclopropyl)benzamide]"
3,> 75,"Cc1nc2cc(NC(=O)c3ccc(C4CC4(Cl)Cl)cc3)ccc2s1 (centres unmarked) [Compound 6, 4-(2,2-dichlorocyclopropyl)-N-(2-methylbenzo[d]thiazol-5-yl)benzamide]"
4,> 75,"Cc1nc2cc(NC(=O)c3ccc(C4CC4C(F)(F)F)cc3C)ccc2s1 (single isomer, unassigned) [Compound 11, 2-methyl-N-(2-methylbenzo[d]thiazol-5-yl)-4-(2-(trifluoromethyl)cyclopropyl)benzamide]"
5,0 to 25,"Cc1cc(C2CC2)ccc1C(=O)Nc1ccc(C(C)(C)C)cc1 [Compound 2, N-(4-tert-butylphenyl)-4-cyclopropyl-2-methylbenzamide]"
6,25 to 50,"COc1ccc(NC(=O)c2ccc(C3CC3C(F)(F)F)cc2C)cn1 (single isomer, unassigned) [Compound 10, N-(6-methoxypyridin-3-yl)-2-methyl-4-(2-(trifluoromethyl)cyclopropyl)benzamide]"
7,50 to 75,"COc1cccc(NC(=O)c2ccc(C3CC3)cc2C)c1 [Compound 1, 4-cyclopropyl-N-(3-methoxyphenyl)-2-methylbenzamide]"
8,> 75,"Cc1nc2cc(NC(=O)c3ccc(C4CC4)cc3C)ccc2s1 [Compound 7, 4-cyclopropyl-2-methyl-N-(2-methylbenzo[d]thiazol-5-yl)benzamide]"
